Columns and labels:
KHYG-1 (IL-2 2.5 ng/mL) [1] = assay: percent inhibition of viability; higher = more inhibition; settings: 72 h
[2] = test system: normal primary NK cells, pool 2 (3 donors) (IL-2 2.5 ng/mL); assay: as above; settings: 72 h
DERL-7 (IL-2 2.5 ng/mL) [3] = assay: as above; settings: 72 h
NKL (IL-2 2.5 ng/mL) [4] = assay: as above; settings: 72 h
KAI3 (IL-2 2.5 ng/mL) [5] = assay: as above; settings: 72 h
NK-92 (IL-2 2.5 ng/mL) [6] = assay: as above; settings: 72 h
YT (IL-2 2.5 ng/mL) [7] = assay: as above; settings: 72 h
[8] = test system: normal primary NK cells, pool 3 (3 donors) (IL-2 2.5 ng/mL); assay: as above; settings: 72 h
SNK-6 (IL-2 2.5 ng/mL) [9] = assay: as above; settings: 72 h
[10] = test system: normal primary NK cells, pool 1 (3 donors), resting (IL-2 0 ng/mL); assay: as above; settings: 72 h
IMC-1 (IL-2 20 ng/mL) [11] = assay: as above; settings: 72 h
NK-YS (IL-2 2.5 ng/mL) [12] = assay: as above; settings: 72 h
[13] = test system: normal primary NK cells, pool 1 (3 donors) (IL-2 2.5 ng/mL); assay: as above; settings: 72 h
[14] = test system: normal NK cells expanded with K562-aAPC; assay: drug sensitivity score (DSS) (DSS units); higher = more sensitive; extreme values may be limits of the assay; settings: 72 h; IL-2 2.5 ng/mL
Protocol: (§1)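 Drug sensitivity and resistance testing on K562-aAPC-expanded normal NK cells: 5 concentrations (10-fold steps over a 10,000-fold range), 72 h at 37 °C, viability by CellTiter-Glo normalised to DMSO and benzethonium chloride controls; DSS from the fitted curve.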

KHYG-1 (IL-2 2.5 ng/mL) [15] = assay: as above; settings: 72 h
[16] = test system: normal primary NK cells, pool 2 (3 donors) (IL-2 2.5 ng/mL); assay: as above; settings: 72 h
DERL-7 (IL-2 2.5 ng/mL) [17] = assay: as above; settings: 72 h
NKL (IL-2 2.5 ng/mL) [18] = assay: as above; settings: 72 h
KAI3 (IL-2 2.5 ng/mL) [19] = assay: as above; settings: 72 h
NK-92 (IL-2 2.5 ng/mL) [20] = assay: as above; settings: 72 h
YT (IL-2 2.5 ng/mL) [21] = assay: as above; settings: 72 h
[22] = test system: normal primary NK cells, pool 3 (3 donors) (IL-2 2.5 ng/mL); assay: as above; settings: 72 h
SNK-6 (IL-2 2.5 ng/mL) [23] = assay: as above; settings: 72 h
[24] = test system: normal primary NK cells, pool 1 (3 donors), resting (IL-2 0 ng/mL); assay: as above; settings: 72 h
IMC-1 (IL-2 20 ng/mL) [25] = assay: as above; settings: 72 h
NK-YS (IL-2 2.5 ng/mL) [26] = assay: as above; settings: 72 h
[27] = test system: normal primary NK cells, pool 1 (3 donors) (IL-2 2.5 ng/mL); assay: as above; settings: 72 h
[28] = test system: normal NK cells expanded with K562-aAPC; assay: percent inhibition of viability; higher = more inhibition; settings: 72 h, IL-2 2.5 ng/mL
Protocol: as §1

C#Cc1cccc(Nc2ncnc3cc4c(cc23)OCCOCCOCCO4)c1 [Icotinib] (max concentration tested 10000 nM)
percent inhibition of viability [%]
Settings | 1 nM | 10 nM | 100 nM | 1000 nM | 10000 nM
DERL-7 (IL-2 2.5 ng/mL) [3] | -3.69 | 4.28 | 2.21 | -3.13 | 21.1
IMC-1 (IL-2 20 ng/mL) [11] | -2.8 | -2.04 | 2.45 | 1.87 | 17.3
KAI3 (IL-2 2.5 ng/mL) [5] | 0.88 | -3.16 | 3.15 | -4.22 | 15.3
KHYG-1 (IL-2 2.5 ng/mL) [1] | 2.44 | 3.1 | 7.32 | 5.9 | 20.9
NK-92 (IL-2 2.5 ng/mL) [6] | -11.7 | -6.9 | 8.46 | 9.17 | 60.1
NK-YS (IL-2 2.5 ng/mL) [12] | 1.39 | -0.84 | 6.96 | 1.74 | 17.6
NKL (IL-2 2.5 ng/mL) [4] | -8.58 | 1.33 | -2.78 | -2.73 | 7.37
SNK-6 (IL-2 2.5 ng/mL) [9] | 8.75 | 4.17 | -5.78 | 8.65 | 12.1
YT (IL-2 2.5 ng/mL) [7] | -0.54 | 0.7 | 2.3 | -0.04 | 20.5
[2] | -5.53 | 5.07 | 5.9 | -0.93 | 18.9
[8] | -12.7 | -5.94 | 3.15 | -6.39 | -5.24
[10] | 3.19 | -9.84 | 4.39 | -8.23 | 35.6
[13] | 2.64 | -2.92 | -2.29 | -5.75 | 8.93
[28] | -2.8 | 5.15 | 5.26 | 7.7 | 24.2

Settings | drug sensitivity score
DERL-7 (IL-2 2.5 ng/mL) [17] | 0.52
IMC-1 (IL-2 20 ng/mL) [25] | 0.61
KAI3 (IL-2 2.5 ng/mL) [19] | 0.15
KHYG-1 (IL-2 2.5 ng/mL) [15] | 0.85
NK-92 (IL-2 2.5 ng/mL) [20] | 4.82
NK-YS (IL-2 2.5 ng/mL) [26] | 0.62
NKL (IL-2 2.5 ng/mL) [18] | 0
SNK-6 (IL-2 2.5 ng/mL) [23] | 0.39
YT (IL-2 2.5 ng/mL) [21] | 0.63
[14] | 1.38
[16] | 0.45
[22] | 0
[24] | 1.28
[27] | 0

O=C(Nc1cccc(Cl)c1)Nc1ncc(CCNc2ncnc3ccsc23)s1 [SNS-314] (max concentration tested 1000 nM)
percent inhibition of viability [%]
Settings | 0.1 nM | 1 nM | 10 nM | 100 nM | 1000 nM
DERL-7 (IL-2 2.5 ng/mL) [3] | -2.96 | -1.43 | 3.21 | 69.3 | 58.4
IMC-1 (IL-2 20 ng/mL) [11] | -9.62 | -5.56 | 14.2 | 10.2 | 70.4
KAI3 (IL-2 2.5 ng/mL) [5] | -2.71 | -1.61 | 20.4 | 30.6 | 47.3
KHYG-1 (IL-2 2.5 ng/mL) [1] | -7.32 | -4.71 | 35.4 | 53.6 | 68
NK-92 (IL-2 2.5 ng/mL) [6] | -4.05 | -1.72 | 20.3 | 45.2 | 83.4
NK-YS (IL-2 2.5 ng/mL) [12] | -8.15 | -3.63 | -0.24 | 70.4 | 75.2
NKL (IL-2 2.5 ng/mL) [4] | -9.51 | -8.35 | 6.03 | 23.5 | 42.8
SNK-6 (IL-2 2.5 ng/mL) [9] | -12.7 | -23.7 | 33.2 | 59.5 | 70
YT (IL-2 2.5 ng/mL) [7] | -4.76 | -1.46 | 7.82 | 19 | 37.3
[2] | -8.39 | 1.8 | 4.68 | 5.41 | 5.48
[8] | -5.85 | 0.22 | 7.29 | 3.37 | 8.78
[10] | 3.09 | 19.6 | 8.47 | 17.5 | 20.9
[13] | 1.31 | 16.9 | 9.79 | 4.5 | 10.9
[28] | -6.43 | -10 | 4.3 | 43.3 | 42.2

Settings | drug sensitivity score
DERL-7 (IL-2 2.5 ng/mL) [17] | 13.1
IMC-1 (IL-2 20 ng/mL) [25] | 5.61
KAI3 (IL-2 2.5 ng/mL) [19] | 7.77
KHYG-1 (IL-2 2.5 ng/mL) [15] | 15
NK-92 (IL-2 2.5 ng/mL) [20] | 11.2
NK-YS (IL-2 2.5 ng/mL) [26] | 13
NKL (IL-2 2.5 ng/mL) [18] | 4.85
SNK-6 (IL-2 2.5 ng/mL) [23] | 17.1
YT (IL-2 2.5 ng/mL) [21] | 3.89
[14] | 8.52
[16] | 0
[22] | 0
[24] | 3.41
[27] | 0

— the supplement of paper PMC5908809
